US9580390B2, “Indazole compounds as kinase inhibitors and method of treating cancer with same” (University Health Network, priority 2011, dated 2017)
pIC50: −log10 of the molar value.

Assays:
human TTK = target: T1, human TTK (Homo sapiens, UniProt P33981); test: TTK inhibition assay (indirect ELISA); format: biochemical; conditions: read-out: TTK IC50 Range
T1 construct: amino terminal GST fusion of full length human TTK; purchased Invitrogen
T1 sequence (P33981 1-857): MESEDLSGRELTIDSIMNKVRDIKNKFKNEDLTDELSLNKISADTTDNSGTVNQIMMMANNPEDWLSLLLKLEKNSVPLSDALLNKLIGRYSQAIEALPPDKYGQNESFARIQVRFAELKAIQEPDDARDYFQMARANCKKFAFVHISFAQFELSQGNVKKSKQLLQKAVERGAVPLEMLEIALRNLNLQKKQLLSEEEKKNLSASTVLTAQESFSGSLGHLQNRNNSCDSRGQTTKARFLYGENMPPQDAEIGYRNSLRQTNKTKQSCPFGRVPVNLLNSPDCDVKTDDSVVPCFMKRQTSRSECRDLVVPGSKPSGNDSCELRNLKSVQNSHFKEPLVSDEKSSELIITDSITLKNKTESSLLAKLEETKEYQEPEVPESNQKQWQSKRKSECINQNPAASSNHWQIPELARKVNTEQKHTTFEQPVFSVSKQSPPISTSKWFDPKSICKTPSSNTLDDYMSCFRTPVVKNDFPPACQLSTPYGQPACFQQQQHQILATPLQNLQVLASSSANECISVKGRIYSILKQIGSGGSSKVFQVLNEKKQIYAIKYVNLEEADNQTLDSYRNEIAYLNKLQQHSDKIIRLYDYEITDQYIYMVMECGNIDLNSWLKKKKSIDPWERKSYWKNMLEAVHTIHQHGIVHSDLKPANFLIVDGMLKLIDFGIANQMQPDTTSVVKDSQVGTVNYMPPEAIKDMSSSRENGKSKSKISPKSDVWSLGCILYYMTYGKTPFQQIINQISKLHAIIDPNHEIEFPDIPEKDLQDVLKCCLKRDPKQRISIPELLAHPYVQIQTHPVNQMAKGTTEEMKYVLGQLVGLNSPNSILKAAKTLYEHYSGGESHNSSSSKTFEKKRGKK

Breast cancer cells = test: Cancer cell line growth inhibition (SRB assay); format: cell-based; conditions: Homo sapiens; MDA-MB-468; read-out: Cancer Cell Line GI50 Range MDA-MB-468
[1] = test system: colon cancer cells (HCT116); test: Cancer cell line growth inhibition (SRB assay); format: cell-based; conditions: Homo sapiens, HCT-116; read-out: Cancer Cell Line GI50 Range HCT116
[2] = test system: ovarian cancer cells (PA-1); test: Cancer cell line growth inhibition (SRB assay); format: cell-based; conditions: Homo sapiens, PA-1; read-out: Cancer Cell Line GI50 Range PA-1
TICs (Colon 12) = test: Colon tumor-initiating cell growth inhibition (Alamar Blue); format: cell-based; conditions: 216 h; Colon 12 TICs, 9 days; read-out: Tumor Initiating Cell GI50 Range Colon 12
TICs (Ovarian 2393A) = test: Ovarian tumor-initiating cell growth inhibition (Alamar Blue); format: cell-based; conditions: 144 h; Ovarian 2393A TICs, 6 days; read-out: Tumor Initiating Cell GI50 Range Ovarain 2393A

| Compound | pIC50 (human TTK) | GI50 (Breast cancer cells) [nM] | GI50 [1] [nM] | GI50 [2] [nM] | GI50 (TICs (Colon 12)) [nM] | GI50 (TICs (Ovarian 2393A)) [nM] |
| --- | --- | --- | --- | --- | --- | --- |
| CC(C)[C@H](NC(=O)c1ccc2[nH]nc(-c3ccc(OC4CCN(C[C@@H](O)C(F)(F)F)CC4)cc3)c2c1)c1ccccc1Cl [Example A228, N-((S)-1-(2-chlorophenyl)-2-methylpropyl)-3-(4-((1-((R)-3,3,3-trifluoro-2-hydroxypropyl)piperidin-4-yl)oxy)phenyl)-1H-indazole-5-carboxamide] | > 7.00 | 100 to 500 | 100 to 500 | 100 to 500 | > 500 | 100 to 500 |
| CN1[C@@H]2CC[C@H]1C[C@@H](Oc1ccc(-c3n[nH]c4ccc(C(=O)NC(c5ccccn5)C5CCCC5)cc34)cc1)C2 (stereo partly drawn) [Example A244, N-(cyclopentyl(pyridin-2-yl)methyl)-3-(4-(((1R,3R,5S)-8-methyl-8-azabicyclo[3.2.1]octan-3-yl)oxy)phenyl)-1H-indazole-5-carboxamide] | > 7.00 | 100 to 500 | < 100 | < 100 | 100 to 500 | 100 to 500 |
| CN1CCC(Oc2ccc(-c3n[nH]c4ccc(C(=O)NC(c5ccccn5)C5CC5)cc34)cc2S(C)(=O)=O)CC1 (stereo not drawn) [Example A245, N-(cyclopropyl(pyridin-2-yl)methyl)-3-(4-((1-methylpiperidin-4-yl)oxy)-3-(methylsulfonyl)phenyl)-1H-indazole-5-carboxamide] | > 7.00 | > 500 | 100 to 500 | 100 to 500 | > 500 | > 500 |
| CN1CCC(Oc2ccc(-c3n[nH]c4ccc(C(=O)NC(c5ccccc5)C5CC5)cc34)cc2S(C)(=O)=O)CC1 (stereo not drawn) [Example A246, N-(cyclopropyl(phenyl)methyl)-3-(4-((1-methylpiperidin-4-yl)oxy)-3-(methylsulfonyl)phenyl)-1H-indazole-5-carboxamide] | > 7.00 | > 500 | 100 to 500 | < 100 | > 500 | > 500 |
| CN1CCC2(CC1)CC(=O)c1cc(-c3n[nH]c4ccc(C(=O)N[C@H](c5ccccn5)C5CC5)cc34)ccc1O2 [Example A257, (S)-N-(cyclopropyl(pyridin-2-yl)methyl)-3-(1′-methyl-4-oxospiro[chroman-2,4′-piperidin]-6-yl)-1H-indazole-5-carboxamide] | > 7.00 | 100 to 500 | < 100 | < 100 | 100 to 500 | 100 to 500 |
| CC1=CC2(CCN(C)CC2)Oc2ccc(-c3n[nH]c4ccc(C(=O)N[C@H](c5ccccc5Cl)C(C)C)cc34)cc21 [Example A258, (S)-N-(1-(2-chlorophenyl)-2-methylpropyl)-3-(1′,4-dimethylspiro[chromene-2,4′-piperidin]-6-yl)-1H-indazole-5-carboxamide] | > 7.00 | < 100 | < 100 | < 100 | < 100 | < 100 |
| CC(C)[C@H](NC(=O)c1ccc2[nH]nc(-c3ccc(OC4CCN(C)CC4)c(S(C)(=O)=O)c3)c2c1)c1ccccc1Cl [Example A259, (S)-N-(1-(2-chlorophenyl)-2-methylpropyl)-3-(4-((1-methylpiperidin-4-yl)oxy)-3-(methylsulfonyl)phenyl)-1H-indazole-5-carboxamide] | > 7.00 | < 100 | < 100 | < 100 | 100 to 500 | < 100 |
| CC1=CC2(CCN(C)CC2)Oc2ccc(-c3n[nH]c4ccc(C(=O)N[C@H](c5ccccn5)C5CC5)cc34)cc21 [Example A260, (S)-N-(cyclopropyl(pyridin-2-yl)methyl)-3-(1′,4-dimethylspiro[chromene-2,4′-piperidin]-6-yl)-1H-indazole-5-carboxamide] | > 7.00 | < 100 | < 100 | < 100 | 100 to 500 | < 100 |
| O=C(N[C@H](c1ccccn1)C1CC1)c1ccc2[nH]nc(-c3ccc4c(c3)C(=O)CC3(CCN(C5COC5)CC3)O4)c2c1 [Example A264, (S)-N-(cyclopropyl(pyridin-2-yl)methyl)-3-(1′-(oxetan-3-yl)-4-oxospiro[chroman-2,4′-piperidin]-6-yl)-1H-indazole-5-carboxamide] | > 7.00 | < 100 | < 100 | < 100 | 100 to 500 | 100 to 500 |
| O=C(N[C@H](c1ccccc1F)C1CC1)c1ccc2[nH]nc(-c3ccc(N4C5CCC4CC(O)C5)cc3)c2c1 (stereo partly drawn) [Example A265, N-((S)-cyclopropyl(2-fluorophenyl)methyl)-3-(4-((1R,3R,5S)-3-hydroxy-8-azabicyclo[3.2.1]octan-8-yl)phenyl)-1H-indazole-5-carboxamide] | > 7.00 | < 100 | < 100 | < 100 | < 100 | < 100 |
| O=C(N[C@@H](c1ccccc1F)C1CC1)c1ccc2[nH]nc(-c3ccc(N4C5CCC4CC(O)C5)cc3)c2c1 (stereo partly drawn) [Example A266, N-((R)-cyclopropyl(2-fluorophenyl)methyl)-3-(4-((1R,3R,5S)-3-hydroxy-8-azabicyclo[3.2.1]octan-8-yl)phenyl)-1H-indazole-5-carboxamide] | > 7.00 | < 100 | < 100 | < 100 | < 100 | < 100 |
| O=C(N[C@H](c1ccccc1F)C1CC1)c1ccc2[nH]nc(-c3ccc(N4CCN(C5COC5)CC4)cc3)c2c1 [Example A269, (S)-N-(cyclopropyl(2-fluorophenyl)methyl)-3-(4-(4-(oxetan-3-yl)piperazin-1-yl)phenyl)-1H-indazole-5-carboxamide] | > 7.00 | < 100 | < 100 | < 100 | < 100 | < 100 |
| CC(C)[C@H](NC(=O)c1ccc2[nH]nc(-c3ccc(OC4CCN(C)CC4)cc3)c2c1)c1ccccc1Cl [Example A273, (S)-N-(1-(2-chlorophenyl)-2-methylpropyl)-3-(4-((1-methylpiperidin-4-yl)oxy)phenyl)-1H-indazole-5-carboxamide] | > 7.00 | < 100 | < 100 | < 100 | < 100 | < 100 |
| CC(C)C(NC(=O)c1ccc2[nH]nc(-c3ccc(O[C@H]4C[C@H]5CC[C@@H](C4)N5C)cc3)c2c1)c1ccccc1Cl (stereo partly drawn) [Example A279, N-(1-(2-chlorophenyl)-2-methylpropyl)-3-(4-(((1R,3R,5S)-8-methyl-8-azabicyclo[3.2.1]octan-3-yl)oxy)phenyl)-1H-indazole-5-carboxamide] | > 7.00 | < 100 | < 100 | < 100 | 100 to 500 | 100 to 500 |
| CN1[C@@H]2CC[C@H]1C[C@@H](Oc1ccc(-c3n[nH]c4ccc(C(=O)NC(c5ccsc5)C5CCC5)cc34)cc1)C2 (stereo partly drawn) [Example A283, N-(cyclobutyl(thiophen-3-yl)methyl)-3-(4-(((1R,3R,5S)-8-methyl-8-azabicyclo[3.2.1]octan-3-yl)oxy)phenyl)-1H-indazole-5-carboxamide] | > 7.00 | 100 to 500 | < 100 | < 100 | 100 to 500 | 100 to 500 |
